Results as given in PubChem BioAssay AID1963874 (Molecular Pharmacology Branch, DTP, NCI, 2024).
pIC50: −log10 of the molar value.

Tested on: 253994-281-T-J1-PDC KRAS-mutant spheroids with HUVEC/MSC, viability
Assay: Anticancer human tumor 253994-281-T-J1-PDC patient-derived colorectal carcinoma cell line growth inhibition [KRAS2]
Conditions: for pIC50: curve of first compound; for viability, T/C: stronger effect = lower value; active = viability on the fitted dose curve at most 10% of control; inactive = the rest
Outline: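 Combination screen of spheroid viability in tumor-cell co-cultures with endothelial (HUVEC) and mesenchymal stem cell stroma. Each agent was tested in half-log dilutions, topping at clinical Cmax or at 10 microM without a known Cmax.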

[1] = second compound 0.1 µM, first compound 0.000316 µM
[2] = second compound 0.1 µM, first compound 0.001 µM
[3] = second compound 0.1 µM, first compound 0.00316 µM
[4] = second compound 0.1 µM, first compound 0.01 µM
[5] = second compound 0.1 µM, first compound 0.0316 µM
[6] = second compound 0.316 µM, first compound 0.000316 µM
[7] = second compound 0.316 µM, first compound 0.001 µM
[8] = second compound 0.316 µM, first compound 0.00316 µM
[9] = second compound 0.316 µM, first compound 0.01 µM
[10] = second compound 0.316 µM, first compound 0.0316 µM
[11] = second compound 1 µM, first compound 0.000316 µM
[12] = second compound 1 µM, first compound 0.001 µM
[13] = second compound 1 µM, first compound 0.00316 µM
[14] = second compound 1 µM, first compound 0.01 µM
[15] = second compound 1 µM, first compound 0.0316 µM
[16] = second compound 3.16 µM, first compound 0.000316 µM
[17] = second compound 3.16 µM, first compound 0.001 µM
[18] = second compound 3.16 µM, first compound 0.00316 µM
[19] = second compound 3.16 µM, first compound 0.01 µM
[20] = second compound 3.16 µM, first compound 0.0316 µM
[21] = second compound 10 µM, first compound 0.000316 µM
[22] = second compound 10 µM, first compound 0.001 µM
[23] = second compound 10 µM, first compound 0.00316 µM
[24] = second compound 10 µM, first compound 0.01 µM
[25] = second compound 10 µM, first compound 0.0316 µM
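Note: spheroids exposed to agents for seven days before readout.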
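Throughout, for viability, T/C: percent of DMSO vehicle control viability.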

CC(=O)Nc1cccc(-n2c(=O)n(C3CC3)c(=O)c3c(Nc4ccc(I)cc4F)n(C)c(=O)c(C)c32)c1 + CC1OCC2(CCN(c3cnc(Sc4ccnc(N)c4Cl)c(N)n3)CC2)C1N
9.69: pIC50 (second compound 0.316 µM)
> 10.00: pIC50 (second compound 1 µM) | pIC50 (second compound 3.16 µM) | pIC50 (second compound 10 µM)
inactive: viability, T/C (second compound 0.1 µM, first compound 0.0001 µM) 64.3% | viability, T/C [1] 68.6% | viability, T/C [2] 34.1% | viability, T/C [3] 17.9% | viability, T/C [4] 10.1% | viability, T/C [5] 5.82% | viability, T/C (second compound 0.316 µM, first compound 0.0001 µM) 63.1% | viability, T/C [6] 42.8% | viability, T/C [7] 22.3% | viability, T/C [8] 14.1% | viability, T/C (second compound 1 µM, first compound 0.0001 µM) 40.5% | viability, T/C [11] 27.7% | viability, T/C [12] 14.1% | viability, T/C (second compound 3.16 µM, first compound 0.0001 µM) 29.3% | viability, T/C [16] 23.6% | viability, T/C [17] 10.8% | viability, T/C (second compound 10 µM, first compound 0.0001 µM) 16.5%
9.25: pIC50 (second compound 0.1 µM)
active: viability, T/C [9] 8.18% | viability, T/C [10] 4.42% | viability, T/C [13] 9.38% | viability, T/C [14] 7.13% | viability, T/C [15] 4.04% | viability, T/C [18] 5.83% | viability, T/C [19] 6.59% | viability, T/C [20] 3.09% | viability, T/C [21] 7.93% | viability, T/C [22] 5.92% | viability, T/C [23] 4.52% | viability, T/C [24] 3.06% | viability, T/C [25] 2.51%

CC(C)n1nc(-c2ccc3oc(N)nc3c2)c2c(N)ncnc21 + CC1OCC2(CCN(c3cnc(Sc4ccnc(N)c4Cl)c(N)n3)CC2)C1N
> 9.50: pIC50 (second compound 10 µM)
inactive: viability, T/C [1] 97.9% | viability, T/C [2] 100% | viability, T/C [3] 101% | viability, T/C [4] 81% | viability, T/C [5] 76.5% | viability, T/C (second compound 0.1 µM, first compound 0.1 µM) 56.9% | viability, T/C [6] 93.6% | viability, T/C [7] 76.7% | viability, T/C [8] 78.9% | viability, T/C [9] 77.7% | viability, T/C [10] 68.5% | viability, T/C (second compound 0.316 µM, first compound 0.1 µM) 49.8% | viability, T/C [11] 85.3% | viability, T/C [12] 73.2% | viability, T/C [13] 82.8% | viability, T/C [14] 67.8% | viability, T/C [15] 57.6% | viability, T/C (second compound 1 µM, first compound 0.1 µM) 49.4% | viability, T/C [16] 62% | viability, T/C [17] 64.6% | viability, T/C [18] 67.3% | viability, T/C [19] 55.2% | viability, T/C [20] 44% | viability, T/C (second compound 3.16 µM, first compound 0.1 µM) 36.5% | viability, T/C [21] 40.1% | viability, T/C [22] 40.7% | viability, T/C [23] 43.2% | viability, T/C [24] 44.5% | viability, T/C [25] 39.2% | viability, T/C (second compound 10 µM, first compound 0.1 µM) 28.2%
7.06: pIC50 (second compound 1 µM)
7.75: pIC50 (second compound 3.16 µM)
< 7.00: pIC50 (second compound 0.1 µM) | pIC50 (second compound 0.316 µM)
